Laboratory results published in patent US20260152527A1, “NOVEL MELANOCORTIN ANALOGS” (priority 2022, published 2026).
pIC50: −log10 of the molar value. Starred links: 1 amine or outer side, 2 acyl side, 3 side chain; linkers in the order of their positions; H or OH if unused. Positions of bridges follow the written chain, without caps; N, C: chain ends. Non-standard residues stand in square brackets, D forms with d. Residues, ends and D or L forms follow the SMILES beside them. Triazole bridges read from a SMILES are 1,4-linked. dPhe(4-CF3) = N[C@H](Cc1ccc(C(F)(F)F)cc1)C(=O)O; NMeW = CN[C@@H](Cc1c[nH]c2ccccc12)C(=O)O; Lys(N3) = [N-]=[N+]=NCCCC[C@H](N)C(=O)O; Phe(4-NH2) = Nc1ccc(C[C@H](N)C(=O)O)cc1; Orn(N3) = [N-]=[N+]=NCCC[C@H](N)C(=O)O; NMeR = CN[C@@H](CCCNC(=N)N)C(=O)O; Suc = O=C(CCC(=O)[*:2])[*:1]; Hpra = C#CCC[C@H](N)C(=O)O; Nle = CCCC[C@H](N)C(=O)O; Pra = C#CC[C@H](N)C(=O)O; Dab = NCC[C@H](N)C(=O)O

Columns and labels:
Assay type in all cases: cell-based
human recombinant MC1R = target: T1, human recombinant MC1R (Homo sapiens, UniProt Q01726); assay: cyclic AMP (cAMP) functional assay, MC1R stable cell line (CHO-K1); settings: cAMP functional assay;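 also: cells with test compound for 60 min at room temperature in buffer containing IBMX, then cAMP quantified by Eu-cAMP tracer and ULight anti-cAMP detection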
T1 construct: host or cells: CHO-K1
Description: The cyclic AMP (cAMP) functional assay was performed on a human recombinant MC1R stable cell line (CHO-K1, GenScript). The cells were cultured at 37° C. and 5% CO2 with culture medium (90% Ham's F-12K (Kaighn's)+10% FBS+400 μg/mL G418). […] Then, 100 nL of compounds were transferred to the assay plate by the Echo machine. Cells were washed with PBS and then detached by incubation with 0.05% (w/v) Trypsin EDTA at 37° C. for 2 to 5 mins. Cells were collected with stimulation buffer (1×HBSS with 5 mM HEPES+0.2 mM IBMX+0.1% BSA) and 10 ul of cells (the density of 2,500 cells/well) solution was transferred to assay plate, centrifuged at 600 rpm for 3 min and then incubated with compounds at room temperature for 60 min. After that, 5 μL 4×Eu-cAMP tracer solution and 5 μL 4×ULight™-anti-cAMP solution was added into the cells, centrifuged at 600 rpm for 3 min and incubated for 60 min. The cAMP signal was detected with Envision® Multimode Plate Reader (PerkinElmer).

human recombinant MC5R = target: T2, human recombinant MC5R (Homo sapiens, UniProt P33032); assay: Ca2+ signalling functional assay, MC5R stable cell line (CHO-K1/Ga15); settings: calcium flux functional assay
T2 construct: host or cells: CHO-K1/Ga15
Description: The Ca^2+ signalling functional assay was performed on a human recombinant MC5R stable cell line (CHO-K1/Ga15, GenScript). The cells were cultured at 37° C. and 5% C02 with culture medium (90% Ham's F-12K (Kaighn's)+10% FBS+400 μg/mL G418+100 μg/mL Hygromycin B). Cells were washed with PBS and then detached by incubation with 0.05% (w/v) Trypsin EDTA at 37° C. for 2 to 5 mins. Detached cells were suspended in Ham's F-12K (Kaighn's) (containing 10% FBS) and a 50 μL cell suspension is seeded into each well of a 384-well assay plate at a density of 15,000 cells/well. Cells were allowed to settle overnight at 37° C., 5% CO2. […] Then, 100 nL of compounds were transferred to the compound plate by the Echo machine. Thirty microliter assay buffer was added to the compounds plate and then shaken for 20-40 minutes. The plates were placed on the FLIPR and 15 μL of the compound was added to each well, then calcium flux signal was measured.

human recombinant MC3R = target: T3, human recombinant MC3R (Homo sapiens, UniProt P41968); assay: Ca2+ signalling functional assay, MC3R stable cell line (CHO-K1/Gα15); settings: calcium flux functional assay
T3 construct: host or cells: CHO-K1/Gα15
T3 sequence (P41968 whole entry): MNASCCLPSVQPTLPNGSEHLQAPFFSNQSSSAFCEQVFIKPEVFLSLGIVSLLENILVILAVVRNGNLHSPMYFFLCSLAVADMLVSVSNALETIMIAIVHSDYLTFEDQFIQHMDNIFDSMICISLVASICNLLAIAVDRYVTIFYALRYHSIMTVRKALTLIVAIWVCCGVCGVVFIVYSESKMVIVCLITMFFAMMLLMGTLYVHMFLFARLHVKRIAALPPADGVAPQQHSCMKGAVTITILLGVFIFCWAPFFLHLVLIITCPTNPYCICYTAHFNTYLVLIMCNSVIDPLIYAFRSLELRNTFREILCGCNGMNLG
Description: The Ca^2+ signalling functional assay was performed on a human recombinant MC3R stable cell line (CHO-K1/Gα15, GenScript). The cells were cultured at 37° C. and 5% CO2 with culture medium (90% Ham's F-12K (Kaighn's)+10% FBS+200 μg/mL Zeocin+100 μg/mL Hygromycin B). Cells were washed with PBS and then detached by incubation with 0.05% (w/v) Trypsin EDTA at 37° C. for 2-5 mins. Detached cells were suspended in Ham's F-12K (Kaighn's) (containing 10% FBS) and a 50 μL cell suspension was seeded into each well of a 384-well assay plate at a density of 10,000 cells/well. Cells were allowed to settle overnight at 37° C., 5% CO2. […] The compounds and reference compound ACTH were diluted in 4 folds starting from 50 uM. Then, 500 nL of compounds were transferred to the compound plate by the Echo machine. 30 uL assay buffer was added into the compounds plate and then shaken for 20-40 minutes. The plates were then placed on the FLIPR Tetra High-Throughput Cellular Screening System (FLIPR®, Molecular Devices) and 15 μL of the compound was added to each well, then calcium flux signal was measured.

T1 sequence (Q01726 whole entry): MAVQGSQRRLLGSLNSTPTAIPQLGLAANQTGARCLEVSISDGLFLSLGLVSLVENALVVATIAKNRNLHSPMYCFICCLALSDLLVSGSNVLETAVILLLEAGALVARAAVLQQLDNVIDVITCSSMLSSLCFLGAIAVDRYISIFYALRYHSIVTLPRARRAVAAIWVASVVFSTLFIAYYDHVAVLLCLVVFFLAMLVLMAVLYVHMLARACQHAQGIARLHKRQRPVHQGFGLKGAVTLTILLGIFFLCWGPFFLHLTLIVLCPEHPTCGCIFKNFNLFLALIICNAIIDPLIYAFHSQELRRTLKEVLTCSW
T2 sequence (P33032 whole entry): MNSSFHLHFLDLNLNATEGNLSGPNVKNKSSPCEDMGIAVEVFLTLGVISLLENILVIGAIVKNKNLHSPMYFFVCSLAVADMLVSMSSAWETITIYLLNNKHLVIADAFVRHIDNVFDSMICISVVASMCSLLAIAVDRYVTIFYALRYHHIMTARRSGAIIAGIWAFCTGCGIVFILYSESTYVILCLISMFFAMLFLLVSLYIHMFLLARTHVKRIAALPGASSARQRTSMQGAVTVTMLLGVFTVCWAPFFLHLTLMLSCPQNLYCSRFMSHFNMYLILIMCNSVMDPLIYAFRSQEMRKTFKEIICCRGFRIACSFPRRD

Compound | pIC50 (human recombinant MC1R) | further results
Ac-EHFRWGKP-NH2 [KR-007] |  | pIC50 (human recombinant MC5R): < 5.00
CSCC[C@H](NC(=O)[C@H](CO)NC(=O)[C@H](Cc1ccc(O)cc1)NC(=O)[C@H](CO)NC(C)=O)C(=O)N[C@@H](CCC(=O)O)C(=O)N[C@@H](Cc1c[nH]cn1)C(=O)N[C@@H](Cc1ccccc1)C(=O)N[C@@H](CCCNC(=N)N)C(=O)N[C@@H](Cc1c[nH]c2ccccc12)C(=O)NCC(=O)N[C@@H](CCCCN)C(N)=O [KR-006] | 9.96 | 
N=C(N)NCCC[C@@H]1NC(=O)[C@H](Cc2ccccc2)NC(=O)[C@H](Cc2c[nH]cn2)NC(=O)[C@H](CCC(=O)O)NC(=O)CSC[C@@H](C(N)=O)NC(=O)CNC(=O)[C@H](Cc2c[nH]c3ccccc23)NC1=O [KR-012, Cyclo(-Ac-Glu-His-Phe-Arg-Trp-Gly-Cys)-NH2] ({CH2CO}-EHFRWGC-NH2; thioether N-7) |  | MC5R IC50 (human recombinant MC5R): Not fit
CCCC[C@H](NC(C)=O)C(=O)N[C@H]1CSCc2cccc(c2)CSC[C@@H](C(=O)N[C@@H](Cc2c[nH]c3ccccc23)C(N)=O)NC(=O)[C@H](CCCNC(=N)N)NC(=O)[C@@H](Cc2ccccc2)NC(=O)[C@H](Cc2c[nH]cn2)NC1=O [KR-032, Ac-Nle-cyc(Cys-His-DPhe-Arg-Cys)-Trp, L: m-xylene-NH2] | 10.09 | 
CCCC[C@H](NC(C)=O)C(=O)N[C@H]1CCCCn2cc(nn2)C[C@@H](C(N)=O)NC(=O)[C@H](Cc2c[nH]c3ccccc23)NC(=O)[C@H](CCCNC(=N)N)NC(=O)[C@@H](Cc2ccc(C(F)(F)F)cc2)NC(=O)[C@H](Cc2c[nH]cn2)NC1=O [KR-048, Ac-Nle-[Lys(N3)-His-Dphe(4-CF3)-Arg-Trp-Pra]-NH2] (Ac-[Nle][Lys(N3)]H[dPhe(4-CF3)]RW[Pra]-NH2; triazole 2-7) |  | pIC50 (human recombinant MC3R): < 4.30
CSCC[C@H](NC(=O)[C@H](CO)NC(=O)[C@H](Cc1ccc(O)cc1)NC(=O)[C@H](CO)NC(C)=O)C(=O)N[C@@H](CCC(=O)O)C(=O)N[C@@H](Cc1c[nH]cn1)C(=O)N[C@@H](Cc1ccccc1)C(=O)N[C@@H](CCCNC(=N)N)C(=O)N(C)[C@@H](Cc1c[nH]c2ccccc12)C(=O)NCC(=O)N[C@@H](CCCCN)C(=O)N1CCC[C@H]1C(=O)N[C@H](C(N)=O)C(C)C [KR-024] | 9.06 | 

Now from value to compound, other results behind:

pIC50 (human recombinant MC1R) | Compound | further results
10.09 | CCCC[C@H](NC(C)=O)C(=O)N[C@H]1CCCCn2cc(nn2)C[C@@H](C(N)=O)NC(=O)[C@H](Cc2c[nH]c3ccccc23)N(C)C(=O)[C@H](CCCNC(=N)N)N(C)C(=O)[C@@H](Cc2ccccc2)NC(=O)[C@H](Cc2c[nH]cn2)NC1=O [KR-050, Ac-Nle-[Lys(N3)-His-DPhe-NMeArg-NMeTrp-Pra]-NH2] (Ac-[Nle][Lys(N3)]H[dF][NMeR][NMeW][Pra]-NH2; triazole 2-7) | 
10.40 | CCCC[C@H](NC(C)=O)C(=O)N[C@H]1CCNC(=O)CCC(=O)NCC[C@@H](C(N)=O)NC(=O)[C@H](Cc2c[nH]c3ccccc23)NC(=O)[C@H](CCCNC(=N)N)NC(=O)[C@@H](Cc2ccccc2)NC(=O)[C@H](Cc2c[nH]cn2)NC1=O [KR-041, Ac-Nle-[Dab-His-DPhe-Arg-Trp-Dab] Linker: succinic acid-NH2] (Ac-[Nle][Dab]H[dF]RW[Dab]-NH2; linker 2-7 via Suc (inferred)) | 
10.40 | CCCC[C@H](NC(C)=O)C(=O)N[C@H]1CCCn2cc(nn2)CC[C@@H](C(=O)N[C@@H](CCCCN)C(N)=O)NC(=O)[C@H](Cc2c[nH]c3ccccc23)NC(=O)[C@H](CCCNC(=N)N)NC(=O)[C@@H](Cc2ccccc2)NC(=O)[C@H](Cc2c[nH]cn2)NC1=O [KR-068, Ac-Nle-[Orn(N3)-His-DPhe-Arg-Trp-Hpra]-Lys-NH2] (Ac-[Nle][Orn(N3)]H[dF]RW[Hpra]K-NH2; triazole 2-7) | pIC50 (human recombinant MC5R): 7.39
< 7.30 | CCCC[C@H](NC(C)=O)C(=O)N[C@H]1CCCCn2cc(nn2)C[C@@H](C(N)=O)NC(=O)[C@H](Cc2c[nH]c3ccccc23)NC(=O)[C@H](CCCNC(=N)N)NC(=O)[C@@H](Cc2ccccc2)NC(=O)[C@H](Cc2ccc(N)cc2)NC1=O [KR-047, Ac-Nle-[Lys(N3)-Phe(4-NH2)-DPhe-Arg-Trp-Pra]-NH2] (Ac-[Nle][Lys(N3)][Phe(4-NH2)][dF]RW[Pra]-NH2; triazole 2-7) | 
9.96 | CCCC[C@H](NC(C)=O)C(=O)N[C@H]1Cc2cn(nn2)CCCC[C@@H](C(=O)N[C@@H](CCCCN)C(N)=O)NC(=O)[C@H](Cc2c[nH]c3ccccc23)NC(=O)[C@H](CCCNC(=N)N)NC(=O)[C@@H](Cc2ccccc2)NC(=O)[C@H](Cc2c[nH]cn2)NC1=O [KR-067, Ac-Nle-[Pra-His-DPhe-Arg-Trp-Lys(N3)]-Lys-NH2] (Ac-[Nle][Pra]H[dF]RW[Lys(N3)]K-NH2; triazole 2-7) | 
10.62 | CCCC[C@H](NC(C)=O)C(=O)N[C@H]1CCCCn2cc(nn2)C[C@@H](C(=O)N[C@@H](CCCCN)C(N)=O)NC(=O)[C@H](Cc2c[nH]c3ccccc23)NC(=O)[C@H](CCCNC(=N)N)NC(=O)[C@@H](Cc2ccccc2)NC(=O)[C@H](Cc2c[nH]cn2)NC1=O [KR-037, Ac-Nle-[Lys(N3)-His-DPhe-Arg-Trp-Pra]-Lys-NH2] (Ac-[Nle][Lys(N3)]H[dF]RW[Pra]K-NH2; triazole 2-7) | 
